Patent US10227344B2, “CK2 inhibitors, compositions and methods thereof” (Polaris Pharmaceuticals, Inc., priority 2016, dated 2019)

What was measured:
[1] = target: purified CK2α enzyme (Homo sapiens, UniProt P68400); assay: CK2 Protein Kinase Inhibition Assay (coupled PK/LDH assay); type: biochemical; settings: CK2 enzyme 25 nM, 100 μM ATP, 37° C., Morrison equation
Summary of the method: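 Purified CK2α at 25 nM final, 1.5 mM peptide substrate, 100 μM ATP, pH 8.25 Tris buffer; compounds pre-incubated 10 min at 37° C. ADP coupled via PK/LDH to NADH loss at 340 nm over 30 min, 37° C. Ki from rate versus concentration by Morrison equation, triplicate points.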

[2] = test system: SKOV-3; assay: Cancer cell panel, cell viability (resazurin): Ovarian, SKOV-3; type: cell-based; settings: SKOV-3 (Ovarian), 72 hours; labelled drug combined with Example 3
[3] = test system: OVCAR-3; assay: Cancer cell panel, cell viability (resazurin): Ovarian, OVCAR-3; type: cell-based; settings: OVCAR-3 (Ovarian), 72 hours; labelled drug combined with Example 3
[4] = test system: Caov-3; assay: Cancer cell panel, cell viability (resazurin): Ovarian, Caov-3; type: cell-based; settings: Caov-3 (Ovarian), 72 hours; labelled drug combined with Example 3
[5] = test system: BxPC3; assay: Cancer cell panel, cell viability (resazurin): Pancreatic, BxPC3; type: cell-based; settings: 72 hours, labelled drug combined with Example 3
[6] = test system: HCT116; assay: Cancer cell panel, cell viability (resazurin): Colon, HCT116; type: cell-based; settings: 72 hours, labelled drug combined with Example 3
[7] = test system: HT29; assay: Cancer cell panel, cell viability (resazurin): Colon, HT29; type: cell-based; settings: 72 hours, labelled drug combined with Example 3
[8] = test system: Colo205; assay: Cancer cell panel, cell viability (resazurin): Colon, Colo205; type: cell-based; settings: 72 hours, labelled drug combined with Example 3
[9] = test system: LoVo; assay: Cancer cell panel, cell viability (resazurin): Colon, LoVo; type: cell-based; settings: 72 hours, labelled drug combined with Example 3
[10] = test system: DLD-1; assay: Cancer cell panel, cell viability (resazurin): Colon, DLD-1; type: cell-based; settings: DLD-1 (Colon), 72 hours; labelled drug combined with Example 3
[11] = test system: H1299; assay: Cancer cell panel, cell viability (resazurin): NSCLC, H1299; type: cell-based; settings: 72 hours, labelled drug combined with Example 3
[12] = test system: A549; assay: Cancer cell panel, cell viability (resazurin): NSCLC, A549; type: cell-based; settings: 72 hours, labelled drug combined with Example 3
[13] = test system: H460; assay: Cancer cell panel, cell viability (resazurin): NSCLC, H460; type: cell-based; settings: 72 hours, labelled drug combined with Example 3
[14] = test system: H1975; assay: Cancer cell panel, cell viability (resazurin): NSCLC, H1975; type: cell-based; settings: 72 hours, labelled drug combined with Example 3
[15] = test system: H23; assay: Cancer cell panel, cell viability (resazurin): NSCLC, H23; type: cell-based; settings: 72 hours, labelled drug combined with Example 3
[16] = test system: H2122; assay: Cancer cell panel, cell viability (resazurin): NSCLC, H2122; type: cell-based; settings: 72 hours, labelled drug combined with Example 3
[17] = test system: SkBr-3; assay: Cancer cell panel, cell viability (resazurin): Breast, SkBr-3; type: cell-based; settings: SkBr-3 (Breast), 72 hours; labelled drug combined with Example 3
[18] = test system: MDA-MB-453; assay: Cancer cell panel, cell viability (resazurin): Breast, MDA-MB-453; type: cell-based; settings: MDA-MB-453 (Breast), 72 hours; labelled drug combined with Example 3
[19] = test system: MDA-MB-231; assay: Cancer cell panel, cell viability (resazurin): Breast, MDA-MB-231; type: cell-based; settings: MDA-MB-231 (Breast), 72 hours; labelled drug combined with Example 3
Procedure: (§1) Cells were plated in 96-well plates and treated for 72 hours with a serially diluted CK2 inhibitor or anti-cancer drug or their combination. The suspension cell lines were treated right after plating, while the adherent cells were allowed to attach overnight prior to the start of the treatment.
(§2) Cell viability was determined by adding resazurin to cell cultures and measuring fluorescence with a plate reader. Relative cell viability was calculated by dividing the cell viability signal from a test sample by that of a non-treated control. […] Bliss Independence and Highest Single Agent models were used to determine if there is synergy, additivity or antagonism between the CK2 inhibitor and an anti-cancer drug.

[20] = test system: MDA-MB-157; assay: Cancer cell panel, cell viability (resazurin): Breast, MDA-MB-157; type: cell-based; settings: MDA-MB-157 (Breast), 72 hours; labelled drug combined with Example 3
[21] = test system: BT-20; assay: Cancer cell panel, cell viability (resazurin): Breast, BT-20; type: cell-based; settings: BT-20 (Breast), 72 hours; labelled drug combined with Example 3
Procedure: as §1, §2

[22] = test system: BT-474; assay: Cancer cell panel, cell viability (resazurin): Breast, BT-474; type: cell-based; settings: BT-474 (Breast), 72 hours; labelled drug combined with Example 3
[23] = test system: ZR-75-1; assay: Cancer cell panel, cell viability (resazurin): Breast, ZR-75-1; type: cell-based; settings: ZR-75-1 (Breast), 72 hours; labelled drug combined with Example 3
[24] = test system: T47D; assay: Cancer cell panel, cell viability (resazurin): Breast, T47D; type: cell-based; settings: 72 hours, labelled drug combined with Example 3
[25] = test system: A375; assay: Cancer cell panel, cell viability (resazurin): Melanoma, A375; type: cell-based; settings: 72 hours, labelled drug combined with Example 3
[26] = test system: SK-MEL-3; assay: Cancer cell panel, cell viability (resazurin): Melanoma, SK-MEL-3; type: cell-based; settings: SK-MEL-3 (Melanoma), 72 hours; labelled drug combined with Example 3
[27] = test system: SK-MEL-24; assay: Cancer cell panel, cell viability (resazurin): Melanoma, SK-MEL-24; type: cell-based; settings: SK-MEL-24 (Melanoma), 72 hours; labelled drug combined with Example 3
Procedure: as §1, §2

[28] = test system: WM-115; assay: Cancer cell panel, cell viability (resazurin): Melanoma, WM-115; type: cell-based; settings: WM-115 (Melanoma), 72 hours; labelled drug combined with Example 3
[29] = test system: RPMI8226; assay: Cancer cell panel, cell viability (resazurin): multiple myeloma, RPMI8226; type: cell-based; settings: 72 hours, labelled drug combined with Example 3
[30] = test system: Raji; assay: Cancer cell panel, cell viability (resazurin): Burkitt's Lymphoma, Raji; type: cell-based; settings: 72 hours, labelled drug combined with Example 3
[31] = test system: Daudi; assay: Cancer cell panel, cell viability (resazurin): Burkitt's Lymphoma, Daudi; type: cell-based; settings: 72 hours, labelled drug combined with Example 3
[32] = test system: K562; assay: Cancer cell panel, cell viability (resazurin): Leukemia, K562; type: cell-based; settings: 72 hours, labelled drug combined with Example 3
[33] = test system: HL60; assay: Cancer cell panel, cell viability (resazurin): Leukemia, HL60; type: cell-based; settings: 72 hours, labelled drug combined with Example 3
[34] = test system: EOL-1; assay: Cancer cell panel, cell viability (resazurin): Leukemia, EOL-1; type: cell-based; settings: EOL-1 (Leukemia), 72 hours; labelled drug combined with Example 3

Chain of purified CK2α enzyme (P68400 whole entry): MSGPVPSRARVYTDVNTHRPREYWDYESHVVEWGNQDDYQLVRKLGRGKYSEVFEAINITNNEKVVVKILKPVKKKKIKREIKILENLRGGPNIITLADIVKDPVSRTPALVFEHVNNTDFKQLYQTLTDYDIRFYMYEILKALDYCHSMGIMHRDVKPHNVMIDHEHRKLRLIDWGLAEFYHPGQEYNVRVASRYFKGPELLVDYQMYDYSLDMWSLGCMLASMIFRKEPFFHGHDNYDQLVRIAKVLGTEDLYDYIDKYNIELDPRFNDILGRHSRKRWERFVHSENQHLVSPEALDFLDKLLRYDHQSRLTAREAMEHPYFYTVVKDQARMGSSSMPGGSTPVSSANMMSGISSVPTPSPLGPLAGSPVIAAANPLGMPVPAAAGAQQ

CS(=O)(=O)Cc1cc(Nc2cc(NC3CC3)n3ncc(C#N)c3n2)ccc1OCCN.Cl [Example 26, 5-((4-(2-aminoethoxy)-3-((methylsulfonyl)methyl)phenyl)amino)-7-(cyclopropylamino)pyrazolo[1,5-a]pyrimidine-3-carbonitrile hydrochloric acid salt]
Ki [1]: 2.5 to 10 nM
melting point: 238 to 240 °C

CS(=O)(=O)Cc1cc(Nc2cc(NC3CC3)n3ncc(C#N)c3n2)ccc1N1CCC1 [Example 32, 5-((4-(Azetidin-1-yl)-3-((methylsulfonyl)methyl)phenyl)amino)-7-(cyclopropylamino)pyrazolo[1,5-a]pyrimidine-3-carbonitrile]
Ki [1]: < 2.5 nM
melting point: 220 to 222 °C

CC(=O)O[C@H]1C(=O)[C@@]2(C)[C@H]([C@H](OC(=O)c3ccccc3)[C@]3(O)C[C@H](OC(=O)[C@H](O)[C@@H](NC(=O)c4ccccc4)c4ccccc4)C(C)=C1C3(C)C)[C@]1(OC(C)=O)CO[C@@H]1C[C@@H]2O [Paclitaxel, paclitaxel]
synergy, additivity or antagonism of the combination of Example 3 with the anti-cancer drug [2]: + (Additive relative to each agent alone (CI = 0.9-1 by Bliss Independence Model and <0.9 by Highest Single Agent Model))
synergy, additivity or antagonism of the combination of Example 3 with the anti-cancer drug [3]: + (Additive relative to each agent alone (CI = 0.9-1 by Bliss Independence Model and <0.9 by Highest Single Agent Model))
synergy, additivity or antagonism of the combination of Example 3 with the anti-cancer drug [4]: + (Additive relative to each agent alone (CI = 0.9-1 by Bliss Independence Model and <0.9 by Highest Single Agent Model))
synergy, additivity or antagonism of the combination of Example 3 with the anti-cancer drug [5]: + + (Slight synergy relative to each agent alone (CI = 0.75-0.9 by Bliss Independence Model))
synergy, additivity or antagonism of the combination of Example 3 with the anti-cancer drug [6]: + (Additive relative to each agent alone (CI = 0.9-1 by Bliss Independence Model and <0.9 by Highest Single Agent Model))
synergy, additivity or antagonism of the combination of Example 3 with the anti-cancer drug [7]: + (Additive relative to each agent alone (CI = 0.9-1 by Bliss Independence Model and <0.9 by Highest Single Agent Model))
synergy, additivity or antagonism of the combination of Example 3 with the anti-cancer drug [8]: + + + (Synergy relative to each agent alone (CI = 0.4-0.74 by Bliss Independence Model))
synergy, additivity or antagonism of the combination of Example 3 with the anti-cancer drug [9]: + (Additive relative to each agent alone (CI = 0.9-1 by Bliss Independence Model and <0.9 by Highest Single Agent Model))
synergy, additivity or antagonism of the combination of Example 3 with the anti-cancer drug [10]: + + + (Synergy relative to each agent alone (CI = 0.4-0.74 by Bliss Independence Model))
synergy, additivity or antagonism of the combination of Example 3 with the anti-cancer drug [11]: + (Additive relative to each agent alone (CI = 0.9-1 by Bliss Independence Model and <0.9 by Highest Single Agent Model))
synergy, additivity or antagonism of the combination of Example 3 with the anti-cancer drug [12]: + (Additive relative to each agent alone (CI = 0.9-1 by Bliss Independence Model and <0.9 by Highest Single Agent Model))
synergy, additivity or antagonism of the combination of Example 3 with the anti-cancer drug [13]: + + (Slight synergy relative to each agent alone (CI = 0.75-0.9 by Bliss Independence Model))
synergy, additivity or antagonism of the combination of Example 3 with the anti-cancer drug [14]: + (Additive relative to each agent alone (CI = 0.9-1 by Bliss Independence Model and <0.9 by Highest Single Agent Model))
synergy, additivity or antagonism of the combination of Example 3 with the anti-cancer drug [15]: + + (Slight synergy relative to each agent alone (CI = 0.75-0.9 by Bliss Independence Model))
synergy, additivity or antagonism of the combination of Example 3 with the anti-cancer drug [16]: + (Additive relative to each agent alone (CI = 0.9-1 by Bliss Independence Model and <0.9 by Highest Single Agent Model))
synergy, additivity or antagonism of the combination of Example 3 with the anti-cancer drug [17]: + (Additive relative to each agent alone (CI = 0.9-1 by Bliss Independence Model and <0.9 by Highest Single Agent Model))
synergy, additivity or antagonism of the combination of Example 3 with the anti-cancer drug [18]: + (Additive relative to each agent alone (CI = 0.9-1 by Bliss Independence Model and <0.9 by Highest Single Agent Model))
synergy, additivity or antagonism of the combination of Example 3 with the anti-cancer drug [19]: + (Additive relative to each agent alone (CI = 0.9-1 by Bliss Independence Model and <0.9 by Highest Single Agent Model))
synergy, additivity or antagonism of the combination of Example 3 with the anti-cancer drug [20]: + (Additive relative to each agent alone (CI = 0.9-1 by Bliss Independence Model and <0.9 by Highest Single Agent Model))
synergy, additivity or antagonism of the combination of Example 3 with the anti-cancer drug [21]: + + (Slight synergy relative to each agent alone (CI = 0.75-0.9 by Bliss Independence Model))
synergy, additivity or antagonism of the combination of Example 3 with the anti-cancer drug [22]: + (Additive relative to each agent alone (CI = 0.9-1 by Bliss Independence Model and <0.9 by Highest Single Agent Model))
synergy, additivity or antagonism of the combination of Example 3 with the anti-cancer drug [23]: + (Additive relative to each agent alone (CI = 0.9-1 by Bliss Independence Model and <0.9 by Highest Single Agent Model))
synergy, additivity or antagonism of the combination of Example 3 with the anti-cancer drug [24]: + (Additive relative to each agent alone (CI = 0.9-1 by Bliss Independence Model and <0.9 by Highest Single Agent Model))
synergy, additivity or antagonism of the combination of Example 3 with the anti-cancer drug [25]: + (Additive relative to each agent alone (CI = 0.9-1 by Bliss Independence Model and <0.9 by Highest Single Agent Model))
synergy, additivity or antagonism of the combination of Example 3 with the anti-cancer drug [26]: + (Additive relative to each agent alone (CI = 0.9-1 by Bliss Independence Model and <0.9 by Highest Single Agent Model))
synergy, additivity or antagonism of the combination of Example 3 with the anti-cancer drug [27]: + (Additive relative to each agent alone (CI = 0.9-1 by Bliss Independence Model and <0.9 by Highest Single Agent Model))
synergy, additivity or antagonism of the combination of Example 3 with the anti-cancer drug [28]: + (Additive relative to each agent alone (CI = 0.9-1 by Bliss Independence Model and <0.9 by Highest Single Agent Model))
synergy, additivity or antagonism of the combination of Example 3 with the anti-cancer drug [29]: + (Additive relative to each agent alone (CI = 0.9-1 by Bliss Independence Model and <0.9 by Highest Single Agent Model))
synergy, additivity or antagonism of the combination of Example 3 with the anti-cancer drug [30]: + + (Slight synergy relative to each agent alone (CI = 0.75-0.9 by Bliss Independence Model))
synergy, additivity or antagonism of the combination of Example 3 with the anti-cancer drug [31]: + (Additive relative to each agent alone (CI = 0.9-1 by Bliss Independence Model and <0.9 by Highest Single Agent Model))
synergy, additivity or antagonism of the combination of Example 3 with the anti-cancer drug [32]: + (Additive relative to each agent alone (CI = 0.9-1 by Bliss Independence Model and <0.9 by Highest Single Agent Model))
synergy, additivity or antagonism of the combination of Example 3 with the anti-cancer drug [33]: + + (Slight synergy relative to each agent alone (CI = 0.75-0.9 by Bliss Independence Model))
synergy, additivity or antagonism of the combination of Example 3 with the anti-cancer drug [34]: + (Additive relative to each agent alone (CI = 0.9-1 by Bliss Independence Model and <0.9 by Highest Single Agent Model))
